Test results taken from PubChem BioAssay AID1259407 (Chemical Carcinogenesis Research Information System (CCRIS), 2018).
The source made the active and inactive calls. No rule for the calls is given here.

Tested on: CCRIS mutagenicity, Ames/micronucleus/aberration tests
Assay: CCRIS mutagenicity studies
[1] = Test System: AMES SALMONELLA TYPHIMURIUM, Strain/Indicator: TA98, Metabolic Activation: NONE, Method: PREINCUBATION
[2] = Test System: AMES SALMONELLA TYPHIMURIUM, Strain/Indicator: TA100, Metabolic Activation: NONE, Method: PREINCUBATION
[3] = Test System: AMES SALMONELLA TYPHIMURIUM, Strain/Indicator: TA1535, Metabolic Activation: NONE, Method: PREINCUBATION
[4] = Test System: AMES SALMONELLA TYPHIMURIUM, Strain/Indicator: TA1537, Metabolic Activation: NONE, Method: PREINCUBATION

Measured: mutagenic call

CCCCC(CC)CO (stereo not drawn)
inactive: Test System: AMES SALMONELLA TYPHIMURIUM, Strain/Indicator: TA98, Metabolic Activation: HAMSTER, LIVER, S-9, AROCLOR 1254 (10%), Method: PREINCUBATION inactive; negative | [1] inactive; negative | Test System: AMES SALMONELLA TYPHIMURIUM, Strain/Indicator: TA98, Metabolic Activation: RAT LIVER S-9, PHENOBARBITAL AND BETA-NAPHTHOFLAVONE, Method: PREINCUBATION inactive; negative | Test System: AMES SALMONELLA TYPHIMURIUM, Strain/Indicator: TA98, Metabolic Activation: RAT, LIVER, S-9, AROCLOR 1254 (10%), Method: PREINCUBATION inactive; negative | Test System: AMES SALMONELLA TYPHIMURIUM, Strain/Indicator: TA98, Metabolic Activation: RAT, LIVER, S-9, KC 500, Method: PREINCUBATION inactive; negative | Test System: AMES SALMONELLA TYPHIMURIUM, Strain/Indicator: TA100, Metabolic Activation: HAMSTER, LIVER, S-9, AROCLOR 1254 (10%), Method: PREINCUBATION inactive; negative | [2] inactive; negative | Test System: AMES SALMONELLA TYPHIMURIUM, Strain/Indicator: TA100, Metabolic Activation: RAT LIVER S-9, PHENOBARBITAL AND BETA-NAPHTHOFLAVONE, Method: PREINCUBATION inactive; negative | Test System: AMES SALMONELLA TYPHIMURIUM, Strain/Indicator: TA100, Metabolic Activation: RAT, LIVER, S-9, AROCLOR 1254 (10%), Method: PREINCUBATION inactive; negative | Test System: AMES SALMONELLA TYPHIMURIUM, Strain/Indicator: TA100, Metabolic Activation: RAT, LIVER, S-9, KC 500, Method: PREINCUBATION inactive; negative | Test System: AMES SALMONELLA TYPHIMURIUM, Strain/Indicator: TA1535, Metabolic Activation: HAMSTER, LIVER, S-9, AROCLOR 1254 (10%), Method: PREINCUBATION inactive; negative | [3] inactive; negative | Test System: AMES SALMONELLA TYPHIMURIUM, Strain/Indicator: TA1535, Metabolic Activation: RAT LIVER S-9, PHENOBARBITAL AND BETA-NAPHTHOFLAVONE, Method: PREINCUBATION inactive; negative | Test System: AMES SALMONELLA TYPHIMURIUM, Strain/Indicator: TA1535, Metabolic Activation: RAT, LIVER, S-9, AROCLOR 1254 (10%), Method: PREINCUBATION inactive; negative | Test System: AMES SALMONELLA TYPHIMURIUM, Strain/Indicator: TA1535, Metabolic Activation: RAT, LIVER, S-9, KC 500, Method: PREINCUBATION inactive; negative | Test System: AMES SALMONELLA TYPHIMURIUM, Strain/Indicator: TA1537, Metabolic Activation: HAMSTER, LIVER, S-9, AROCLOR 1254 (10%), Method: PREINCUBATION inactive; negative | [4] inactive; negative | Test System: AMES SALMONELLA TYPHIMURIUM, Strain/Indicator: TA1537, Metabolic Activation: RAT LIVER S-9, PHENOBARBITAL AND BETA-NAPHTHOFLAVONE, Method: PREINCUBATION inactive; negative | Test System: AMES SALMONELLA TYPHIMURIUM, Strain/Indicator: TA1537, Metabolic Activation: RAT, LIVER, S-9, AROCLOR 1254 (10%), Method: PREINCUBATION inactive; negative | Test System: AMES SALMONELLA TYPHIMURIUM, Strain/Indicator: TA1537, Metabolic Activation: RAT, LIVER, S-9, KC 500, Method: PREINCUBATION inactive; negative | Test System: AMES SALMONELLA TYPHIMURIUM, Strain/Indicator: TA1538, Metabolic Activation: NONE, Method: PREINCUBATION inactive; negative | Test System: AMES SALMONELLA TYPHIMURIUM, Strain/Indicator: TA1538, Metabolic Activation: RAT, LIVER, S-9, KC 500, Method: PREINCUBATION inactive; negative | Test System: E. COLI, Strain/Indicator: WP2 UVRA, Metabolic Activation: NONE, Method: PREINCUBATION inactive; negative | Test System: E. COLI, Strain/Indicator: WP2UVRA, Metabolic Activation: NONE, Method: PREINCUBATION inactive; negative | Test System: E. COLI, Strain/Indicator: WP2UVRA, Metabolic Activation: RAT LIVER S-9, PHENOBARBITAL AND BETA-NAPHTHOFLAVONE, Method: PREINCUBATION inactive; negative | Test System: E. COLI, Strain/Indicator: WP2 UVRA, Metabolic Activation: RAT, LIVER, S-9, KC 500, Method: PREINCUBATION inactive; negative

O=c1[nH]c(=O)[nH]c(=O)[nH]1
inactive: Test System: AMES SALMONELLA TYPHIMURIUM, Strain/Indicator: TA98, Metabolic Activation: HAMSTER, LIVER, S-9, AROCLOR 1254, Method: PREINCUBATION inactive; negative | [1] inactive; negative | Test System: AMES SALMONELLA TYPHIMURIUM, Strain/Indicator: TA98, Metabolic Activation: NONE, Method: STANDARD PLATE inactive; negative | Test System: AMES SALMONELLA TYPHIMURIUM, Strain/Indicator: TA98, Metabolic Activation: RAT, LIVER, S-9, AROCLOR 1254, Method: PREINCUBATION inactive; negative | Test System: AMES SALMONELLA TYPHIMURIUM, Strain/Indicator: TA98, Metabolic Activation: RAT, LIVER, S-9, AROCLOR 1254, Method: STANDARD PLATE inactive; negative | Test System: AMES SALMONELLA TYPHIMURIUM, Strain/Indicator: TA100, Metabolic Activation: HAMSTER, LIVER, S-9, AROCLOR 1254, Method: PREINCUBATION inactive; negative | [2] inactive; negative | Test System: AMES SALMONELLA TYPHIMURIUM, Strain/Indicator: TA100, Metabolic Activation: NONE, Method: STANDARD PLATE inactive; negative | Test System: AMES SALMONELLA TYPHIMURIUM, Strain/Indicator: TA100, Metabolic Activation: RAT, LIVER, S-9, AROCLOR 1254, Method: PREINCUBATION inactive; negative | Test System: AMES SALMONELLA TYPHIMURIUM, Strain/Indicator: TA100, Metabolic Activation: RAT, LIVER, S-9, AROCLOR 1254, Method: STANDARD PLATE inactive; negative | Test System: AMES SALMONELLA TYPHIMURIUM, Strain/Indicator: TA1535, Metabolic Activation: HAMSTER, LIVER, S-9, AROCLOR 1254, Method: PREINCUBATION inactive; negative | [3] inactive; negative | Test System: AMES SALMONELLA TYPHIMURIUM, Strain/Indicator: TA1535, Metabolic Activation: NONE, Method: STANDARD PLATE inactive; negative | Test System: AMES SALMONELLA TYPHIMURIUM, Strain/Indicator: TA1535, Metabolic Activation: RAT, LIVER, S-9, AROCLOR 1254, Method: PREINCUBATION inactive; negative | Test System: AMES SALMONELLA TYPHIMURIUM, Strain/Indicator: TA1535, Metabolic Activation: RAT, LIVER, S-9, AROCLOR 1254, Method: STANDARD PLATE inactive; negative | Test System: AMES SALMONELLA TYPHIMURIUM, Strain/Indicator: TA1537, Metabolic Activation: HAMSTER, LIVER, S-9, AROCLOR 1254, Method: PREINCUBATION inactive; negative | [4] inactive; negative | Test System: AMES SALMONELLA TYPHIMURIUM, Strain/Indicator: TA1537, Metabolic Activation: NONE, Method: STANDARD PLATE inactive; negative | Test System: AMES SALMONELLA TYPHIMURIUM, Strain/Indicator: TA1537, Metabolic Activation: RAT, LIVER, S-9, AROCLOR 1254, Method: PREINCUBATION inactive; negative | Test System: AMES SALMONELLA TYPHIMURIUM, Strain/Indicator: TA1537, Metabolic Activation: RAT, LIVER, S-9, AROCLOR 1254, Method: STANDARD PLATE inactive; negative | Test System: MOUSE LYMPHOMA, Strain/Indicator: L5178Y (TK+/TK-), Metabolic Activation: NONE, Method: SUSPENSION/PLATE inactive; negative | Test System: MOUSE LYMPHOMA, Strain/Indicator: L5178Y (TK+/TK-), Metabolic Activation: RAT, LIVER, S-9, AROCLOR 1254, Method: SUSPENSION/PLATE inactive; negative
